Measured values from ChEMBL document CHEMBL1157682, “In silico prediction of human carboxylesterase-1 (hCES1) metabolism combining docking analyses and MD simulations” (Bioorg Med Chem, 2010).
Where “and” joins values, the source holds several entries; their conditions need not be identical. Equal entries are not always repeated.

target: T1, Liver carboxylesterase 1 (Homo sapiens, UniProt P23141); assay: Activity at human recombinant CES1 expressed in baculovirus-infected Spodoptera frugiperda Sf21 cells assessed as substrate hydrolysis by fluorescence assay
T1 sequence (P23141 whole entry): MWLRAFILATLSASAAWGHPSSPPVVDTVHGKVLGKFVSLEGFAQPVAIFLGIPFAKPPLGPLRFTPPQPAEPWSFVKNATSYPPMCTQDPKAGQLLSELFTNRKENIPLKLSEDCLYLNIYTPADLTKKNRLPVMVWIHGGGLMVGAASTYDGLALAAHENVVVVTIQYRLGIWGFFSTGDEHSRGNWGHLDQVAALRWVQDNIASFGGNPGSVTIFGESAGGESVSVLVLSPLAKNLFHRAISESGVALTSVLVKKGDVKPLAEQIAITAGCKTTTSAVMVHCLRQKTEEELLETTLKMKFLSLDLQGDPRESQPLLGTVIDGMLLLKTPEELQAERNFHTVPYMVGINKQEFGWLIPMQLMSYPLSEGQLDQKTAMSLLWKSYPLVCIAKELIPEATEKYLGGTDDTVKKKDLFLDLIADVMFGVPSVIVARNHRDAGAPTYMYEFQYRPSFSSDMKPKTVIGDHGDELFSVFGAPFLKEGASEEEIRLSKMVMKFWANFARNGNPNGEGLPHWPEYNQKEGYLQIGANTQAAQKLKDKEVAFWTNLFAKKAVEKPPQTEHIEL

SMILES | pKm
CC(C)[C@H](N)C(=O)OC[C@H]1O[C@@H](n2cc(F)c(=O)[nH]c2=O)C[C@@H]1O | 2.45
CC1(C)[C@H](C=C(Cl)Cl)[C@@H]1C(=O)OCc1cccc(Oc2ccccc2)c1 | 4.62
COC(=O)[C@H](c1ccccc1Cl)N1CCc2sccc2C1 [CLOPIDOGREL] | 4.25
COc1ccc2cc([C@@H](C#N)OC(=O)[C@@H]3[C@@H](C=C(Cl)Cl)C3(C)C)ccc2c1 | 6.15
CCOC(=O)[C@H](CCc1ccccc1)N[C@@H](C)C(=O)N(CC(=O)O)C1Cc2ccccc2C1 | 2.82
CC1(C)[C@@H](C=C(Cl)Cl)[C@@H]1C(=O)OCc1cccc(Oc2ccccc2)c1 (stereo in doubt) | 5.01
COc1ccc2cc([C@H](C#N)OC(=O)[C@@H]3[C@H](C=C(Cl)Cl)C3(C)C)ccc2c1 | 6.52
CC(=O)Oc1ccc2c(C)cc(=O)oc2c1 | 3.1
N[C@@H](Cc1ccccc1)C(=O)OC[C@H]1O[C@@H](n2cc(F)c(=O)[nH]c2=O)C[C@@H]1O | 3.34
CC(C)=C[C@H]1[C@H](C(=O)OCc2coc(Cc3ccccc3)c2)C1(C)C (relative stereo) | 5.17
CCOC(=O)[C@H](CCc1ccccc1)N[C@@H](C)C(=O)N1Cc2ccccc2C[C@H]1C(=O)O | 3.87
CCCC(=O)Oc1ccc([N+](=O)[O-])cc1 | 3.89
COc1ccc2cc([C@H](C#N)OC(=O)[C@H]3[C@@H](C=C(Cl)Cl)C3(C)C)ccc2c1 | 5.82
CCOC(=O)C1=C[C@@H](OC(CC)CC)[C@H](NC(C)=O)[C@@H](N)C1 [OSELTAMIVIR] | 3.75
CCCCCOC(=O)Nc1nc(=O)n([C@@H]2O[C@H](C)[C@@H](O)[C@H]2O)cc1F [CAPECITABINE] | 2.89
CCc1c2c(nc3ccc(OC(=O)N4CCC(N5CCCCC5)CC4)cc13)-c1cc3c(c(=O)n1C2)COC(=O)[C@]3(O)CC [IRINOTECAN] | 2.84
CC(=O)Oc1ccc2c3c1O[C@H]1[C@@H](OC(C)=O)C=C[C@H]4[C@@H](C2)N(C)CC[C@@]341 [DIACETYLMORPHINE] | 2.2
CC(=O)O[C@H]1C=C[C@H]2[C@H]3Cc4ccc(O)c5c4[C@@]2(CCN3C)[C@H]1O5 | 2.08
COc1ccc2cc(C(C#N)OC(=O)C3C(C)(C)C3(C)C)ccc2c1 (centres undefined) | 5.82
COc1ccc2cc([C@H](C#N)OC(=O)[C@@H]3[C@@H](C=C(Cl)Cl)C3(C)C)ccc2c1 | 5.77

SMILES | pKm
COc1ccc2cc([C@@H](C#N)OC(=O)[C@H]3[C@@H](C=C(Cl)Cl)C3(C)C)ccc2c1 | 5.85
CCOC(=O)[C@H](CCc1ccccc1)N[C@H]1CS[C@H](c2cccs2)CN(CC(=O)O)C1=O [TEMOCAPRIL] | 3.1
COc1cc(C(=O)OCCCN2CCCN(CCCOC(=O)c3cc(OC)c(OC)c(OC)c3)CC2)cc(OC)c1OC [DILAZEP] | 3.81
COc1ccc(C(=O)N2CCCC2=O)cc1 | 4.07 and 4.02
COc1ccc2cc([C@H](C#N)OC(=O)[C@H]3[C@H](C=C(Cl)Cl)C3(C)C)ccc2c1 | 5.72
CCOC(=O)[C@H](CCc1ccccc1)N[C@@H](C)C(=O)N1C(=O)N(C)C[C@H]1C(=O)O | 3.54
CC1(C)[C@H](C=C(Cl)Cl)[C@H]1C(=O)OCc1cccc(Oc2ccccc2)c1 (stereo in doubt) | 5.01
CN(C)C(=O)COC(=O)Cc1ccc(OC(=O)c2ccc(NC(=N)N)cc2)cc1 [CAMOSTAT] | 3.15
CC(=O)Oc1ccc([N+](=O)[O-])cc1 [4-NITROPHENYL ACETATE] | 3.44
CCOC(=O)C1(c2ccccc2)CCN(C)CC1 [MEPERIDINE] | 2.72
COC(=O)[C@H]1[C@@H](OC(=O)c2ccccc2)C[C@@H]2CC[C@H]1N2C [COCAINE] | 3.92
COC(=O)[C@H](c1ccccc1)[C@H]1CCCCN1 [DEXMETHYLPHENIDATE] | 4.36
CC(C)C[C@H](N)C(=O)OC[C@H]1O[C@@H](n2cc(F)c(=O)[nH]c2=O)C[C@@H]1O | 3.01
CCOC(=O)[C@H](CCc1ccccc1)N[C@H]1CCCN2CCC[C@@H](C(=O)O)N2C1=O [CILAZAPRIL] | 2.89
CCOC(=O)[C@H](CCc1ccccc1)N[C@H]1CCc2ccccc2N(CC(=O)O)C1=O [BENAZEPRIL] | 3.13
COC(=O)[C@@H](c1ccccc1)[C@@H]1CCCCN1 | 4.05
N[C@@H](CC(=O)O)C(=O)OC[C@H]1O[C@@H](n2cc(F)c(=O)[nH]c2=O)C[C@@H]1O | 2.52
CC1(C)[C@H](C(=O)OCc2cccc(Oc3ccccc3)c2)[C@@H]1C=C(Cl)Cl | 4.62
COc1ccc2cc([C@@H](C#N)OC(=O)[C@H]3[C@H](C=C(Cl)Cl)C3(C)C)ccc2c1 | 5.62
